Read-outs that look alike come from different tables or passages of the source.

These results are taken from patent US6765003B1, “3-Arylsulfonyl-2 (substituted methyl) propanoic acid derivatives as matrix metalloproteinase inhibitors” (Pharmacia Italia, SpA, priority 1999, dated 2004).

The subject of data set [1] is patients. Particulars: may be severe and dose-limiting; cited from earlier work.
Data set [2] concerns the target T1, Human gelatinase-A (MMP-2) (Homo sapiens, UniProt P08253).
T1 sequence (P08253 110-660): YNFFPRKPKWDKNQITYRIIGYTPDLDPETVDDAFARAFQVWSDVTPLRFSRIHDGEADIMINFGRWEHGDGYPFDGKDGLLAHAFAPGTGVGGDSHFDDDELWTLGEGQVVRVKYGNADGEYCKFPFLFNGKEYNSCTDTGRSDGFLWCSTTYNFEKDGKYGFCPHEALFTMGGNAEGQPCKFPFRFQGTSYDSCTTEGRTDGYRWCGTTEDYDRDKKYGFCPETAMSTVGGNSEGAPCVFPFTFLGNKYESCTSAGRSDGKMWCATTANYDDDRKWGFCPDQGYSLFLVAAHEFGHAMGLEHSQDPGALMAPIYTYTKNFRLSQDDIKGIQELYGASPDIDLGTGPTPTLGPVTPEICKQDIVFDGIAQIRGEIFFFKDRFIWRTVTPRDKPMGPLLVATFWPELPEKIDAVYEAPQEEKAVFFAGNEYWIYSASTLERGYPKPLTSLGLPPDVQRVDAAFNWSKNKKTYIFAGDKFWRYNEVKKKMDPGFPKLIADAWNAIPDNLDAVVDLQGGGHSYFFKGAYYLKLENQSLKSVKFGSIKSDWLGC
Kind of data set: MMP inhibition, internal fluorescence quenching method (MCA peptide substrate). The data set is classed as biochemical. As to the method: (§1) The inhibitory activity of the compounds of the present invention was evaluated in vitro against one or more of the MMP enzymes (gelatinases, collagenases, stromelysins) using the internal fluorescence quenching method. The assay method is based on the hydrolysis of the MMP substrate, MCA-Pro-Leu-Gly-Leu-DPA-Ala—Arg-NH2 at 37° C. (see Knight, C. G. et al., FEBS Lett. 296:263-266, 1992). The enzymes cleave at the Gly-Leu bond removing the internally quenching DPA group. The release of the highly fluorescent peptide MCA-Pro-Leu was monitored with a LS50 Perkin Elmer fluorimeter equipped with a Peltier-thermostated cell holder using an excitation wavelength of 326 nm and an emission wavelenght of 398 nm. Slis were set at 14/14. Proper determination of steady-state rates of substrate cleavage required a preincubation at 37° C. of 15 minutes to allow for complete equilibration of the enzyme-inhibitor complex. […] Rates of substrate hydrolysis, expressed as fluorescence arbitrary units per minute, were calculated by least-square analysis of the steady-state linear progression curves. The steady-state rates were fitted to the Michaelis equation describing competitive inhibition; in particular, Ki,app were determined by fining the data to the tight-binding equation of Morrison (Biochem. Biophys. Acta, 185:269-286, 1969) by non-linear methods.
(§2) Human gelatinase-A (MMP-2) was obtained as penzyme (72 kDa) and was activated with 1 mM 4-aminophenylmercuric acetate for 30 min at 37° C. immediately prior to use. The inhibitor was diluted into the assay from a stock solution in 100% DMSO, and controls substituted an equal volume of DMSO so that the final DMSO concentration from inhibitor and substrate dilution in all assays was 1%. The concentration of MMP-2 was 19.2 picoM. For compounds of formula (I) where X is —OH, the assay buffer was 50 mM Tris/HCl pH 6.5 containing 150 mM NaCl, 10 mM CaCl2, 0.01 mM ZnCl2 and 0.05% Brij35 (Protocol A). Other conditions were as stated above.
The compounds of formula (I) where X is —NHOH were tested against MMP-2 and MMP-1 under the conditions stated above, but the assay solution was buffered at pH 7.4 (Protocol B).

Data set [3] addresses T2, Human fibroblast collagenase (MMP-1) (Homo sapiens, UniProt P03956).
T2 sequence (P03956 101-269): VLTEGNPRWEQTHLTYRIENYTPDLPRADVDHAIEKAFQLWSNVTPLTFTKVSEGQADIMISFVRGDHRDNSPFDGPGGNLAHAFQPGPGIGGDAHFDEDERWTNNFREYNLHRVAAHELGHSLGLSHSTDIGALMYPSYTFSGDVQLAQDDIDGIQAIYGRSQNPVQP
Kind of data set: MMP inhibition, internal fluorescence quenching method (MCA peptide substrate). Format: biochemical. The protocol: as §1, §2
Assay conditions were the same as above, but enzyme concentration was 200 picoM.

In data set [4] the test system is rats. Particulars: rat, in vivo. The source says:
Questions remain concerning their specificity, bioavailability, and potential long-tens toxicity (see Hodgson, J., ‘Remodeling MMPIs’, Biotechnology 13:554-557, 1995), especially because they are primarily intended (in arthritis and cancer, at least) for prolonged therapy. […] Although the cause of this toxicity is not well understood at this moment, it is thought to arise from an impairment in the normal tissue remodeling that is governed by one or more of the MMPs, primarily fibroblast collagenase (MMP-1). […] Thus, there is a strong need for better MMPIs, especially as far as the properties referred to above (specificity, bioavailability, long-term toxicity) are concerned.

Where [5] appears, read: Protocol A: Tris/HCl pH 6.5, 37° C., MMP-2 19.2 picoM, substrate 3 μM, carboxylic acids, read-out: MMP-2 Ki.

Regarding `CC1(C)SCCN(S(=O)(=O)c2ccc(Oc3ccncc3)cc2)[C@H]1C(=O)NO` [AG3340], the “musculoskeletal syndrome in patients” value in data set [1] is “cause a musculoskeletal syndrome characterized by joint pain and stiffness”.

Consider `COc1ccc(S(=O)(=O)N(Cc2cccnc2)[C@@H](C(=O)NO)C(C)C)cc1` [CGS27023A], for which the “musculoskeletal syndrome in patients” value in data set [1] was “cause a musculoskeletal syndrome characterized by joint pain and stiffness”.

The term Ki denotes the dissociation constant of the complex between target and ligand, obtained from inhibition or displacement. What is called melting point is the temperature, or range, at which the solid turns liquid. `CC1(C)NC(=O)N(CC(CS(=O)(=O)c2ccc(-c3ccc(Cl)cc3)cc2)C(=O)O)C1=O` (stereo not drawn) [Example 9, 3-[(4′-chloro[1,1′-biphenyl]-4-yl)sulfonyl]-2-[(4,4-dimethyl-2,5-dioxo-1-imidazolidinyl)methyl]propanoic acid] showed a melting point of 242 to 245 °C. Also, the Ki in data set [2] (setting [5]) turned out to be 3 nM.

For `O=C(O)C(CN1C(=O)CNC1=O)CS(=O)(=O)c1ccc(-c2ccc(Cl)cc2)cc1` (stereo not drawn) [Example 11, 3-[(4′-chloro[1,1′-biphenyl]-4-yl)sulfonyl]-2-[(2,5-dioxo-1-imidazolidinyl)methyl]propanoic acid], the melting point was 188 to 190 °C. Also, the Ki in data set [2] (setting [5]) was determined as 4 nM.

For the compound `O=C(NO)C(CN1C(=O)CNC1=O)CS(=O)(=O)c1ccc(-c2ccc(Cl)cc2)cc1` (stereo not drawn) [Example 12, 3-[(4′-chloro[1,1′-biphenyl]-4-yl)sulfonyl]-N-hydroxy-2-[(2,5-dioxo-1-imidazolidinyl)methyl]propanamide], the melting point was 150 to 156 °C. Also, the Ki in data set [2] (Protocol B: pH 7.4, 37° C., hydroxamic acids (X is —NHOH), read-out: MMP-2 Ki (picoM)) was found to be 0.069 nM. In addition, in data set [3] (Protocol B: pH 7.4, 37° C., hydroxamic acids (X is —NHOH), read-out: MMP-1 Ki (picoM)), the Ki was 17.1 nM.

`O=C(O)C(CSc1ncccn1)CS(=O)(=O)c1ccc(-c2ccc(Cl)cc2)cc1` (stereo not drawn) [Example 22, 3-[(4′-chloro[1,1′-biphenyl]-4-yl)sulfonyl]-2-[(2-pyrimidinylsulfanyl)methyl]-propanoic acid] showed a melting point of 166 to 168 °C. Moreover, the Ki in data set [2] (setting [5]) stood at 8 nM. Also, the Ki in data set [3] (Protocol A: pH 6.5, 37° C., enzyme 200 picoM, substrate 3 μM, carboxylic acids, read-out: MMP-1 Ki) turned out to be 8030 nM.

Compound `Nc1nnc(SCC(CS(=O)(=O)c2ccc(-c3ccc(Cl)cc3)cc2)C(=O)O)s1` (stereo not drawn) [Example 23, 3-[(4′-chloro[1,1′-biphenyl]-4-yl)sulfonyl]-2-[[(5-amino-1,3,4-thiadiazol-2-yl)sulfanyl]methyl]propanoic acid] displayed a melting point of 184 to 186 °C. The Ki in data set [2] (setting [5]) worked out at 25 nM.

For the compound `Cc1cc(SCC(CS(=O)(=O)c2ccc(-c3ccc(Cl)cc3)cc2)C(=O)O)nc(C)n1` (stereo not drawn) [Example 26, 3-[(4′-chloro[1,1′-biphenyl]-4-yl)sulfonyl]-2-[[(2,6-dimethyl-4-pyrimidinyl)sulfanyl]methyl]propanoic acid], the melting point lay within 170 to 172 °C. Moreover, in data set [2] (setting [5]), the Ki was found to be 26.8 nM.

The compound `Cc1cc(C)nc(SCC(CS(=O)(=O)c2ccc(-c3ccc(Cl)cc3)cc2)C(=O)O)n1` (stereo not drawn) [Example 27, 3-[(4′-chloro[1,1′-biphenyl]-4-yl)sulfonyl]-2-[[(4,6-dimethyl-2-pyrimidinyl)sulfanyl]methyl]propanoic acid] gave a melting point of 170 to 172 °C. In addition, the Ki in data set [2] (setting [5]) was found to be 22.8 nM.

Consider `O=C(O)C(CSc1nccs1)CS(=O)(=O)c1ccc(-c2ccc(Cl)cc2)cc1` (stereo not drawn) [Example 28, 3-[(4′-chloro[1,1′-biphenyl]-4-yl)sulfonyl]-2-[(1,3-thiazol-2-ylsulfanyl)methyl]propanoic acid], for which the melting point lay in the range of 152 to 154 °C. Besides, the Ki in data set [2] (setting [5]) was 6.6 nM.

For the compound `Cn1nnnc1SCC(CS(=O)(=O)c1ccc(-c2ccc(Cl)cc2)cc1)C(=O)O` (stereo not drawn) [Example 32, 3-[(4′-chloro[1,1′-biphenyl]-4-yl)sulfonyl]-2-[[(1-methyl-1H-tetrazol-5-yl)sulfanyl]methyl]propanoic acid], the melting point is 98 to 100 °C. Besides, the Ki in data set [2] (setting [5]) stood at 26 nM.

Turning to `CNC(=O)[C@@H](NC(=O)[C@H](CC(C)C)[C@H](O)C(=O)NO)C(C)(C)C` [Marimastat], in data set [4], the “joint toxicity (histology of stifle joints)” value is given as “elicited histological alteration of stifle joints”.

On to `CNC(=O)[C@@H](NC(=O)[C@@H](CC(=O)NO)CC(C)C)C(C)(C)C` [Ro31-9790], for which, in data set [4], the “joint toxicity (histology of stifle joints)” value was “elicited histological alteration of stifle joints”.
